According to US5859027A, “Antimicrobial agent” (ChekTec Corporation, priority 1997, dated 1999):
Converted amounts (≈) assume the structure as drawn. Where two headings read alike, the source gives them in different places.

Legend:
Fungal cells = assay: Disk diffusion assay for antimicrobial activity (Example 2), zone of growth inhibition; assay type: cell-based; conditions: for zone of growth inhibition, diameter / zone of inhibition at 100 µg/disc: 37° C., 24 hours; for zone of inhibition at 100 µg/disc: 100 μg per 6 mm disk, read-out: zone of growth inhibition, diameter
Procedure: (§1) Fungal cells were grown overnight from a single colony in 2-5 ml Sabouraud Dextrose Broth at 37° C. 1-5×10^6 were spread onto Sabouraud Dextrose Agar plates (Difco, Detroit, Mich.). Sterile 6 mm filter disks were evenly spaced with at least about 22 mm separation on the plates. To each disk, 100 μg of a compound to be tested was applied in 5-10 μl DMSO. On each plate, two disks containing 2.5 and 10 μg, respectively, of Amphotericin B (Sigma) and two disks containing 2.5 and 10 μg, respectively, of cerulenin (Sigma) were used as positive controls. A disk containing only DMSO served as the negative control. The plates were incubated at 37° C. for 24 hours and the zone of growth inhibition about each disk was visually examined and measured. Compound A and compound B typically produced clear zones of 8-12 mm diameter. Amphotericin B typically produced a clear zone of 8-10 mm diameter. Cerulenin typically produced a hazy zone of 20-25 mm diameter. A clear zone is indicative of fungicidal activity, while a hazy zone is indicative of fungistatic activity.

[1] = test system: C. albicans strain ATCC 10231; assay: Murine systemic model of candidiasis; assay type: in vivo, mice; conditions: for % Survival: after nine days
Procedure: (§2) In vivo activity was determined using a murine systemic model of candidiasis. Groups of 5 to 10 mice were inoculated IV with 1-2×10^7 cells of C. albicans strain ATCC 10231 (10 times the lethal dose). One hour after inoculation, the candidate antifungal compounds were delivered IP. 10 mg/kg of compound A was injected into each mouse of the compound A treatment group. Two separate treatment groups received 30 and 100 mg/kg, respectively, of compound B. Amphotericin B was injected into a positive control treatment group at 10 mg/kg. All compounds were delivered in phosphate-buffered saline (PBS) and one treatment group received PBS. Twice daily thereafter the mice were observed, the number of dead mice recorded, and the dead mice removed. After nine days, the total mortality over the period was determined.

[2] = biological target: T1, FAS of C. Albicans strain 4918 (Candida albicans, UniProt P34731+P43098); assay: FAS activity in extracts of treated C. Albicans cultures (Example 10); assay type: cell-based; conditions: for remaining activity at 10 µg/mL / remaining activity at 25 µg/mL: read-out: Percent Remaining FAS Activity
T1 construct: endogenous in cells; host or cells: Candida albicans strain 4918 (from Dr. Ronald Cihlar, Georgetown University Medical Center)
T1 sequence (P43098 whole entry): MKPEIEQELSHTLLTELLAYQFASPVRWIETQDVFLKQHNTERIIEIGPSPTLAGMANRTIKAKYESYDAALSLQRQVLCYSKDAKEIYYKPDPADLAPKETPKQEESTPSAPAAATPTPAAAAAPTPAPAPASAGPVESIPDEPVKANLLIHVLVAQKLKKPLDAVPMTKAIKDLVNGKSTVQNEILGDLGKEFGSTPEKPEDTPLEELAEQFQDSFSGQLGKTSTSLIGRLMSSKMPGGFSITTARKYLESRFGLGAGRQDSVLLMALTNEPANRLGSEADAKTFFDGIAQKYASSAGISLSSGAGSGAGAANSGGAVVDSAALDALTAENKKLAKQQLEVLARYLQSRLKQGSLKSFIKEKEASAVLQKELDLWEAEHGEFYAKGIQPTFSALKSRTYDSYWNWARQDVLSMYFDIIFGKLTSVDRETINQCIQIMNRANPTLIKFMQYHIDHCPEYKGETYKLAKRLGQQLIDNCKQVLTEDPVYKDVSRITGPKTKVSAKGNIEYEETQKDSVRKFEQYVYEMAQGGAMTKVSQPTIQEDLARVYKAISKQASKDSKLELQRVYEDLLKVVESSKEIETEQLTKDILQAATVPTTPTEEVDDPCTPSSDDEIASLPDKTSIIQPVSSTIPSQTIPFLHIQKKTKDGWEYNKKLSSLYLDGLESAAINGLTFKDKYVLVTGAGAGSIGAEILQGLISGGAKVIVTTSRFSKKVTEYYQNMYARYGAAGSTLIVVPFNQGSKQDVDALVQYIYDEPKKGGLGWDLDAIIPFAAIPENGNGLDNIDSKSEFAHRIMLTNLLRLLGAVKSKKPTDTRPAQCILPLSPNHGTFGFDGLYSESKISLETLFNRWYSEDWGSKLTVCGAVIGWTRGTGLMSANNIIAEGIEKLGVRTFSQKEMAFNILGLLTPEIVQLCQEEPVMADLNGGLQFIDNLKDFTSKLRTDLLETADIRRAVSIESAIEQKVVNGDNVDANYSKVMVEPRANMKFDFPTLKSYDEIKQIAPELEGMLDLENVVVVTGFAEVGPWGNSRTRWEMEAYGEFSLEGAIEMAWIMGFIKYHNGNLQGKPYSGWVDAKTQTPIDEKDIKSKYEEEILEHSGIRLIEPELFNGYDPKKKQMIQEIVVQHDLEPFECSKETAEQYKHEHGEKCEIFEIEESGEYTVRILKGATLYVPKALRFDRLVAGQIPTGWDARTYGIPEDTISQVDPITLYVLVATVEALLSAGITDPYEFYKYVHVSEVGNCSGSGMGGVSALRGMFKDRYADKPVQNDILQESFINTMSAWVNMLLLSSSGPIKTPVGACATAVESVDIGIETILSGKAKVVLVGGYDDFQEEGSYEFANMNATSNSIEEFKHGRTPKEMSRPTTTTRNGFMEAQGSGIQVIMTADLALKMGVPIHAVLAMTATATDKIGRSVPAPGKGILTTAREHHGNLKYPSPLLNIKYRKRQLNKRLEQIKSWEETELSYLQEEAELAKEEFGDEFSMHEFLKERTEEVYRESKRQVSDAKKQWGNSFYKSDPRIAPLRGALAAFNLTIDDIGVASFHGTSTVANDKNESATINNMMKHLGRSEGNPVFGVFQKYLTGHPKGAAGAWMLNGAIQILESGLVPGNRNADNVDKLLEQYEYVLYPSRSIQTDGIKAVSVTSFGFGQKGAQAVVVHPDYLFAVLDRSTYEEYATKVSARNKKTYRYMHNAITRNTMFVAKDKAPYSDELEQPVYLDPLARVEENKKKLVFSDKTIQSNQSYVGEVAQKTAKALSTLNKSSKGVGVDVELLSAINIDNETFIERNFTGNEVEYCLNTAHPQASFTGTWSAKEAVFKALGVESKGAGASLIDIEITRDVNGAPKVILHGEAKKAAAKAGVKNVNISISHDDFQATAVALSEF
T1 sequence (P34731 whole entry): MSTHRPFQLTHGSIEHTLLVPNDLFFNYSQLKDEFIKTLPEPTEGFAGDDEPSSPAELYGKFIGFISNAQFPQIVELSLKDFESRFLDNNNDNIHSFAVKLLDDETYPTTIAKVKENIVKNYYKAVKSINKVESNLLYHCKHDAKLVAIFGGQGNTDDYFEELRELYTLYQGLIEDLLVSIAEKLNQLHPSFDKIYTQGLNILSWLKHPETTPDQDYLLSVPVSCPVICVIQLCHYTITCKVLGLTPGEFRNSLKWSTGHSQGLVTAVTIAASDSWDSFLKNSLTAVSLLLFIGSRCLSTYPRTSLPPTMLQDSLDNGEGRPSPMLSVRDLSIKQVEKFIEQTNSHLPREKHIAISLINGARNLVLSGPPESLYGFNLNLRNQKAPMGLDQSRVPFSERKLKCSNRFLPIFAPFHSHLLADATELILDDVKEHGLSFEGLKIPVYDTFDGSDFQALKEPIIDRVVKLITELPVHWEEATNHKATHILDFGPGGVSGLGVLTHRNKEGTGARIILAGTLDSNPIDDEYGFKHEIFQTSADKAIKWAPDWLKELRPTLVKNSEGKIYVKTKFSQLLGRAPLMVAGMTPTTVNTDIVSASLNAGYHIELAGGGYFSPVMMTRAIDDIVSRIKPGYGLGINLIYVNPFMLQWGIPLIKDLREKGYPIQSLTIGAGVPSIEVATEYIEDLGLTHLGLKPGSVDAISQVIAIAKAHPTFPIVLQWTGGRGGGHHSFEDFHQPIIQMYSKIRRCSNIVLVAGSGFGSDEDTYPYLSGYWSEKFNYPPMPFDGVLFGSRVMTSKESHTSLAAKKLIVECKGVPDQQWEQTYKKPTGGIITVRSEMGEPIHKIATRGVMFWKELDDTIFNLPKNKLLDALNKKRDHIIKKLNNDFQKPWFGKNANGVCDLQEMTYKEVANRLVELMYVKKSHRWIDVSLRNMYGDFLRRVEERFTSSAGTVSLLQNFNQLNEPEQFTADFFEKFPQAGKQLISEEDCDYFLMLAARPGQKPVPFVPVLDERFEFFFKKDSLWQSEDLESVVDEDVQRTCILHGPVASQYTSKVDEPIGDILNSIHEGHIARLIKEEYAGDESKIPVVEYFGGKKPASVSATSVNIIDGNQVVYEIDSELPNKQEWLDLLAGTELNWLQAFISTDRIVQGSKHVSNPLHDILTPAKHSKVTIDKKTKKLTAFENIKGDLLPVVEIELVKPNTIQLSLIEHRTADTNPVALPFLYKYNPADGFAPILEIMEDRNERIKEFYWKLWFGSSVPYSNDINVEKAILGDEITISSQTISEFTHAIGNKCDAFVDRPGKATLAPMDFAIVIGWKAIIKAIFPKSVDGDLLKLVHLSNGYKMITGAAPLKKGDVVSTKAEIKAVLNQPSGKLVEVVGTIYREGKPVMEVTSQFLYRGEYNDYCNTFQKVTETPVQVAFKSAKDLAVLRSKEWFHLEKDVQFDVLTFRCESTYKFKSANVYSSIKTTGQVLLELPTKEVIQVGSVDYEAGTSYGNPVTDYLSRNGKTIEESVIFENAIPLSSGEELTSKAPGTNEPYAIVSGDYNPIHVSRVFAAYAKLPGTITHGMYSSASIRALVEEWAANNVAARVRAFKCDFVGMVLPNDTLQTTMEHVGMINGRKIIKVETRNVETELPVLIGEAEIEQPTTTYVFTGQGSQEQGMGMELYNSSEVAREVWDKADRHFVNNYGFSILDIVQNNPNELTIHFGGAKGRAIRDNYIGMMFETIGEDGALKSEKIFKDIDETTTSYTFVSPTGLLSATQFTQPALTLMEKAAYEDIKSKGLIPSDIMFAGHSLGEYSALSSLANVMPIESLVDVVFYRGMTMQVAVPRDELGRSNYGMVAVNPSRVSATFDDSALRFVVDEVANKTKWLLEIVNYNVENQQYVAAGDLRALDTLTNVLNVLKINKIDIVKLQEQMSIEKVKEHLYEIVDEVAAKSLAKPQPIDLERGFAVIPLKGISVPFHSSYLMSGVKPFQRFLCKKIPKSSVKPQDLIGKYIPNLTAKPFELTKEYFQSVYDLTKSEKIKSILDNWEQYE
Procedure: C. Albicans strain 4918 (available from Dr. Ronald Cihlar, Georgetown University Medical Center, Washington, D.C.) was grown in minimal medium (M63 media available from Difco, Detroit, Mich.) at 37° C. to mid-log phase. 10 μg/ml cerulenin and 25 μg/ml of compound B were added to separate cultures. At 15 minute intervals, 20 ml samples were removed and extracts prepared by mechanical extraction as in Example 1C, except that the ammonium sulfate precipitation step was not applied. The extract was diluted to 1 ml to form a solution containing 0.4M potassium phosphate, pH 7.3, 0.125 μM dithiothreitol, 50 μM acetyl-CoA, 100 μM NADPH. After incubation at 37° C. for 5 minutes, 100 μM malonyl-CoA containing 0.5 μCi [2-^14 C]-malonyl-CoA (Amersham, Arlington Heights, Ill.). After 10 minutes at 37° C., the fatty acid synthesis reaction was terminated by adding 30 μl of 60% perchloric acid (v/v) and 1 ml ethanol. Four volumes of pet. ether were added to each reaction incubation to extract the fatty acids. The relative incorporation of malonyl-CoA into fatty acids was determined by liquid scintillation counting.

[3] = Maximal tolerated dose in mice, IP administration; conditions: mouse, in vivo, read-out: maximal tolerated dose (maximum dose that caused no deaths within 72 hours)
Procedure: as §2
Using the same methodology, it was determined that the maximal tolerated dose in these mice (i.e., the maximum dose that caused no deaths within 72 hours following IP administration) of compound B was in excess of 200 mg/kg. The mice treated with 2108B or Amphotericin B injected IP in […] of phosphate buffered saline, pH 7.4 had the following treatment profiles: […]

[4] = test system: Candida tropicalis (strain ATCC 13803); assay: Disk diffusion assay for antimicrobial activity (Example 2); assay type: cell-based
Procedure: as §1

[5] = test system: Candida albicans (strains ATCC 10231 and ATCC 10261); assay: as above; assay type: cell-based
Procedure: as §1

[6] = test system: Candida Albicans strain B311A; assay: MIC assay (Example 1B); assay type: cell-based; conditions: for MIC: Candida albicans; for activity in the MIC assay of Example 1B (in words): HPLC-purified material, strain not stated
Procedure: The fractions from the purification were tested for antifungal activity against C. albicans (strain B311A available from Dr. Paul Actor, Temple University and strains ATCC Nos. 10231 and 10261) and C. tropicalis (strain 13803). […] Prior to the assay for antifungal activity, the fungus to be tested for susceptibility was grown overnight from a single colony in 5 ml of medium at 30° C. This overnight culture was diluted 1:10 with fresh medium and grown at 37° C. for 4 hours. A volume of 5 μl of extracts, dissolved in DMSO, was added to each separate well in a series of 96-well plates. 4,000 fungal cells were then added to each plate in 95 μl of medium. The optical densities of the wells were measured and the plates incubated at 37° C. The optical densities were again measured after 24 and 48 hours. Minimum inhibitory concentrations ("MICs") for the extracts were determined using this procedure wherein the extracts were serially diluted in medium prior to mixing with the 4,000 fungal cells.

FAS from S. cereviseae = biological target: T2, FAS from S. cereviseae (Saccharomyces cerevisiae, UniProt P07149+P19097); assay: FAS inhibition assay (Example 1C); assay type: biochemical
T2 construct: an FAS extract from Saccharomyces cerviseae was prepared; (the yeast itself); host or cells: Fleishmans' freeze dried yeast (Saccharomyces cerevisiae); dialyzed ammonium sulfate precipitate of the lysate
Procedure: To test the compounds for FAS inhibitory activity, an FAS extract from Saccharomyces cerviseae was prepared. Freeze dried yeast (Fleishmans' freeze dried yeast, Specialty Brands, San Francisco, Calif.) 1 g, was hydrated in 5 mls deionized water for 15 minutes at 4° C. Subsequent extraction steps were conducted at a temperature between 4° C. and 10° C., except that in the cell lysis step the temperature may have briefly exceeded these boundaries. The cells were pelleted by centrifugation; the pelleted volume was measured; and the cells were resuspended in 5 vol. (5 mls per ml cell volume) extraction buffer [125 mM KH2PO4, pH 6.6, 1 mM EDTA, 1 mM DTT, 0.7 μg/ml pepstatin (Boehringer Mannheim, Indianapolis, Ind.), 0.2 μg/ml aprotinin (Boehringer Mannheim, Indianapolis, Ind.), 0.2 μg/ml leupeptin (Boehringer Mannheim, Indianapolis, Ind.)]. The cells were again pelleted and resuspended in 2 vol. extraction buffer. The cells were lysed using a bead mill homogenizer (Biospec Products, Bartlesville, OD) with a volume of glass beads equal to the volume of the yeast cells. The bead mill was operated five times for 1 minute, with 1 minute intervals between operations to allow the water jacket of the bead mill to cool the material in the mill. The lysate was centrifuged at 30,000×g for 30 minutes and the supernate was collected. Ammonium sulfate was added to the supernate to 50% saturation and the mixture was stirred for 30 minutes on ice. […]
105 μl of FAS extract was placed in each well of a polypropylene 96 well plate (Costar Corp. Cambridge, Mass.) and multiple 5 μl dilutions of compound A, compound B or negative control solution were introduced into each of the wells. […] The relative initial reaction rates in each well were measured by measuring the decrease in optical density at 340 nm using a UV Max microtiter plate reader (Molecular Devices, Sunnyvalle, Calif.).

[7] = positive control disks with 2.5 and 10 μg
[8] = 10 mg/kg IP one hour after inoculation
[9] = Sabouraud Dextrose Broth substituted for YNB medium

C[C@@H]1[C@H](O)[C@@H](C)/C=C/C=C/C=C/C=C/C=C/C=C/C=C/[C@H](O[C@@H]2O[C@H](C)[C@@H](O)[C@H](N)[C@@H]2O)C[C@@H]2O[C@](O)(C[C@@H](O)C[C@@H](O)[C@H](O)CC[C@@H](O)C[C@@H](O)CC(=O)O[C@H]1C)C[C@H](O)[C@H]2C(=O)O [Amphotericin B, reference compound]
zone appearance (clear = fungicidal, hazy = fungistatic) (Fungal cells; [7]): clear zone | zone of growth inhibition, diameter (Fungal cells; [7]): 8-10 mm | Deaths Each Day Post Inoculation, day 0 ([1]; 10 mg/kg IP): 0 | Deaths Each Day Post Inoculation, day 1 ([1]; 10 mg/kg IP): 0 | Deaths Each Day Post Inoculation, day 3 ([1]; 10 mg/kg IP): 0 | Deaths Each Day Post Inoculation, day 5 ([1]; 10 mg/kg IP): 0 | Deaths Each Day Post Inoculation, day 6 ([1]; 10 mg/kg IP): 0 | Deaths Each Day Post Inoculation, day 7 ([1]; 10 mg/kg IP): 0 | Deaths Each Day Post Inoculation, day 8 ([1]; 10 mg/kg IP): 0 | Deaths Each Day Post Inoculation, day 9 ([1]; 10 mg/kg IP): 0 | % Survival [1, 8]: 80%

C/C=C/C/C=C/CCC(=O)[C@H]1O[C@H]1C(N)=O [Cerulenin, cerulenin, reference compound]
zone appearance (clear = fungicidal, hazy = fungistatic) (Fungal cells; [7]): hazy zone | zone of growth inhibition, diameter (Fungal cells; [7]): 20-25 mm | remaining activity at 10 µg/mL ([2]; 0.25 h): 20% | remaining activity at 10 µg/mL ([2]; 0.5 h): 12%

C/C=C/C=C/C=C/C1=CC2=CC(=O)C(C)(OC(=O)CC(C)O)C(=O)C23OC3O1 (centres unmarked) [Compound A]
zone of inhibition at 100 µg/disc (Fungal cells): 8 to 12 mm | zone appearance (clear = fungicidal, hazy = fungistatic) (Fungal cells; 100 μg per disk): clear zones | MTD at 72 h [3]: 10 mg/kg | antimicrobial activity (in words) [4]: had antimicrobial activity | antimicrobial activity (in words) [5]: had antimicrobial activity | MIC [6, 9]: 50 µg/mL (≈ 129 µM) | MIC ([6]; YNB medium): 25 µg/mL (≈ 64.7 µM) | activity in the MIC assay of Example 1B (in words) [6]: retained activity | FAS inhibition in the in vitro enzyme inhibition assay (in words) (FAS from S. cereviseae): retained activity | IC50 (FAS from S. cereviseae): 414 µM | Deaths Each Day Post Inoculation, day 0 ([1]; 10 mg/kg IP): 0 | Deaths Each Day Post Inoculation, day 1 ([1]; 10 mg/kg IP): 0 | Deaths Each Day Post Inoculation, day 2 ([1]; 10 mg/kg IP): 2 | Deaths Each Day Post Inoculation, day 3 ([1]; 10 mg/kg IP): 3 | Deaths Each Day Post Inoculation, day 4 ([1]; 10 mg/kg IP): 0 | Deaths Each Day Post Inoculation, day 5 ([1]; 10 mg/kg IP): 0 | Deaths Each Day Post Inoculation, day 6 ([1]; 10 mg/kg IP): 0 | Deaths Each Day Post Inoculation, day 7 ([1]; 10 mg/kg IP): 0 | Deaths Each Day Post Inoculation, day 8 ([1]; 10 mg/kg IP): 0 | Deaths Each Day Post Inoculation, day 9 ([1]; 10 mg/kg IP): 0 | % Survival [1, 8]: 0%

C/C=C/C=C/C=C/C1=CC2=CC(=O)C(C)(OC(=O)CC(C)O)C(=O)C2=CO1 (centres unmarked) [Compound B]
zone of inhibition at 100 µg/disc (Fungal cells): 8 to 12 mm | zone appearance (clear = fungicidal, hazy = fungistatic) (Fungal cells; 100 μg per disk): clear zones | MTD at 72 h [3]: > 200 mg/kg | FAS activity of cell extracts made after exposure (in words) [2]: markedly reduced FAS activity | remaining activity at 25 µg/mL ([2]; 0.25 h): 53% | remaining activity at 25 µg/mL ([2]; 0.5 h): 40% | remaining activity at 25 µg/mL ([2]; 0.75 h): 35% | remaining activity at 25 µg/mL ([2]; 1 h): 22% | antimicrobial activity (in words) [4]: had antimicrobial activity | antimicrobial activity (in words) [5]: had antimicrobial activity | MIC [6, 9]: 50 µg/mL (≈ 135 µM) | MIC ([6]; YNB medium): 6.25 µg/mL (≈ 16.9 µM) | activity in the MIC assay of Example 1B (in words) [6]: retained activity | FAS inhibition in the in vitro enzyme inhibition assay (in words) (FAS from S. cereviseae): not directly inhibitory of FAS | Deaths Each Day Post Inoculation, day 0 ([1]; 30 mg/kg IP): 0 | Deaths Each Day Post Inoculation, day 1 ([1]; 30 mg/kg IP): 2 | Deaths Each Day Post Inoculation, day 2 ([1]; 30 mg/kg IP): 1 | Deaths Each Day Post Inoculation, day 3 ([1]; 30 mg/kg IP): 0 | Deaths Each Day Post Inoculation, day 4 ([1]; 30 mg/kg IP): 0 | Deaths Each Day Post Inoculation, day 5 ([1]; 30 mg/kg IP): 0 | Deaths Each Day Post Inoculation, day 6 ([1]; 30 mg/kg IP): 0 | Deaths Each Day Post Inoculation, day 7 ([1]; 30 mg/kg IP): 0 | Deaths Each Day Post Inoculation, day 8 ([1]; 30 mg/kg IP): 0 | Deaths Each Day Post Inoculation, day 9 ([1]; 30 mg/kg IP): 0 | % Survival ([1]; 30 mg/kg IP one hour after inoculation): 40% | Deaths Each Day Post Inoculation, day 0 ([1]; 100 mg/kg IP): 0 | Deaths Each Day Post Inoculation, day 1 ([1]; 100 mg/kg IP): 2 | Deaths Each Day Post Inoculation, day 2 ([1]; 100 mg/kg IP): 0 | Deaths Each Day Post Inoculation, day 3 ([1]; 100 mg/kg IP): 0 | Deaths Each Day Post Inoculation, day 4 ([1]; 100 mg/kg IP): 0 | Deaths Each Day Post Inoculation, day 5 ([1]; 100 mg/kg IP): 0 | Deaths Each Day Post Inoculation, day 6 ([1]; 100 mg/kg IP): 0 | Deaths Each Day Post Inoculation, day 7 ([1]; 100 mg/kg IP): 0 | Deaths Each Day Post Inoculation, day 8 ([1]; 100 mg/kg IP): 1 | Deaths Each Day Post Inoculation, day 9 ([1]; 100 mg/kg IP): 0 | % Survival ([1]; 100 mg/kg IP one hour after inoculation): 40%

C/C=C/C=C/C=C/C1=CC2=CC(=O)C(C)(OC(=O)CC(O)CC(C)O)C(=O)C23OC3O1 (centres unmarked) [patulodin, reference compound]
zone of inhibition at 100 µg/disc (Fungal cells): 7 mm | MIC ([6]; YNB medium): > 100 µg/mL
